In patent EP4722201A1, “3-PHENYLISOXAZOLINE-5-CARBOXAMIDE COMPOUND, AND PREPARATION METHOD THEREFOR, HERBICIDAL COMPOSITION THEREOF AND USE THEREOF” (Jiangsu Flag Chemical Industry Co., Ltd, priority 2023, dated 2024):

Legend:
Assay in all cases: Indoor herbicide activity determination, Seed Treatment; pre-emergence (soil spray)
Type in all cases: in vivo
Aegilops tauschii = conditions: 120 g a.i./ha, read-out: Herbicidal activities (inhibition rate) Aegilops tauschii
Method in brief: (§1)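 Pre-emergence soil spray; sandy soil pH 6.1, OM 1%, 7 cm pots; seeds covered, wetted from below, 24 h incubation under light at constant temperature; spray tower, 300 mm height, 390 mL/min nozzle flow; readout = % fresh-weight inhibition vs control at 21 d.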

Alopecurus japonicus = conditions: Dosage 240 g a.i./ha
Method in brief: as §1

Leptochloa chinensis = conditions: Dosage 240 g a.i./ha
Method in brief: as §1

Lolium multiflorum = conditions: Dosage 240 g a.i./ha
Method in brief: as §1

Digitaria sanguinalis = conditions: 120 g a.i./ha, read-out: Herbicidal activities (inhibition rate) Digitaria sanguinalis
Method in brief: as §1

Cyperus iria = conditions: 120 g a.i./ha, read-out: Herbicidal activities (inhibition rate) Cyperus iria
Method in brief: as §1

Eleusine indica = conditions: Dosage 240 g a.i./ha
Method in brief: as §1

Eclipta prostrata = conditions: 120 g a.i./ha, read-out: Herbicidal activities (inhibition rate) Eclipta prostrata
Method in brief: as §1

Alopecurus myosuroides = conditions: Dosage 240 g a.i./ha
Method in brief: as §1

Structure (SMILES)	inhibition at 120 g/ha (Aegilops tauschii) [%]	Herbicidal activities, Alopecurus japonicus (inhibition rate class) (Alopecurus japonicus)	Herbicidal activities, Leptochloa chinensis (inhibition rate class) (Leptochloa chinensis)	Herbicidal activities, Lolium multiflorum (inhibition rate class) (Lolium multiflorum)	inhibition at 120 g/ha (Digitaria sanguinalis) [%]	inhibition at 120 g/ha (Cyperus iria) [%]	Herbicidal activities, Eleusine indica (inhibition rate class) (Eleusine indica)	inhibition at 120 g/ha (Eclipta prostrata) [%]	Herbicidal activities, Alopecurus myosuroides (inhibition rate class) (Alopecurus myosuroides)	Herbicidal activity (inhibition rate class), Alopecurus japonicus (Alopecurus japonicus)	Herbicidal activity (inhibition rate class), Leptochloa chinensis (Leptochloa chinensis)	Herbicidal activity (inhibition rate class), Lolium multiflorum (Lolium multiflorum)	Herbicidal activity (inhibition rate class), Eleusine indica (Eleusine indica)	Herbicidal activity (inhibition rate class), Alopecurus myosuroides (Alopecurus myosuroides)
C=CC1(C(=O)N[C@H]2CO[C@@H](C(=O)OC)C2)CC(c2cc(Cl)cc(OC(F)(F)F)c2)=NO1 (mixture of isomers) [I-372]	80 to 100	A (A indicates that the inhibition rate was greater than or equal to 80% to 100%)	A (A indicates that the inhibition rate was greater than or equal to 80% to 100%)	A (A indicates that the inhibition rate was greater than or equal to 80% to 100%)	80 to 100	80 to 100	A (A indicates that the inhibition rate was greater than or equal to 80% to 100%)	80 to 100	A (A indicates that the inhibition rate was greater than or equal to 80% to 100%)	–	–	–	–	–
CC1(C(=O)N[C@H]2C=C[C@@H](C(=O)OCCS(C)(=O)=O)C2)CC(c2cc(F)cc(OC(F)(F)F)c2)=NO1 (stereo partly drawn) [I-492]	80 to 100	–	–	–	80 to 100	60 to 80	–	80 to 100	–	A (A indicates that the inhibition rate was greater than or equal to 80% to 100%)	A (A indicates that the inhibition rate was greater than or equal to 80% to 100%)	A (A indicates that the inhibition rate was greater than or equal to 80% to 100%)	A (A indicates that the inhibition rate was greater than or equal to 80% to 100%)	A (A indicates that the inhibition rate was greater than or equal to 80% to 100%)
C=CC1(C(=O)N[C@H]2CO[C@@H](C(=O)OC)C2)CC(c2cc(Cl)cc(C(F)(F)F)c2)=NO1 (mixture of isomers) [I-371]	80 to 100	A (A indicates that the inhibition rate was greater than or equal to 80% to 100%)	A (A indicates that the inhibition rate was greater than or equal to 80% to 100%)	A (A indicates that the inhibition rate was greater than or equal to 80% to 100%)	60 to 80	60 to 80	A (A indicates that the inhibition rate was greater than or equal to 80% to 100%)	40 to 60	A (A indicates that the inhibition rate was greater than or equal to 80% to 100%)	–	–	–	–	–
COC(=O)[C@@H]1C=C[C@H](NC(=O)C2(C)CC(c3cc(F)cc(OC(F)F)c3)=NO2)C1 (stereo partly drawn) [I-505]	80 to 100	–	–	–	80 to 100	80 to 100	–	80 to 100	–	A (A indicates that the inhibition rate was greater than or equal to 80% to 100%)	A (A indicates that the inhibition rate was greater than or equal to 80% to 100%)	A (A indicates that the inhibition rate was greater than or equal to 80% to 100%)	B (B indicates that the inhibition rate was greater than or equal to 60% to less than 80%)	A (A indicates that the inhibition rate was greater than or equal to 80% to 100%)
CSCCOC(=O)[C@@H]1C=C[C@H](NC(=O)C2(C)CC(c3cc(Cl)cc(OC(F)(F)F)c3)=NO2)C1 (stereo partly drawn) [I-487]	80 to 100	–	–	–	60 to 80	80 to 100	–	80 to 100	–	A (A indicates that the inhibition rate was greater than or equal to 80% to 100%)	A (A indicates that the inhibition rate was greater than or equal to 80% to 100%)	A (A indicates that the inhibition rate was greater than or equal to 80% to 100%)	A (A indicates that the inhibition rate was greater than or equal to 80% to 100%)	A (A indicates that the inhibition rate was greater than or equal to 80% to 100%)
